# In patent publication US20090074666A1 (priority 2005, published 2009):
# Read-outs that look alike come from different tables or passages of the source.
# Legend:
# [1] = system: serum antibodies of test subjects (anti-human IgG detection); assay: ELISA of serum antibodies on maleimide-activated plates; type: binding; settings: Cys-conjugate on maleimide plate
# Experimental: Peptides containing cysteine were bound through the cysteine sulfhydryl group to maleimide activated plates (Reacti-Bind™ Maleimide activated plates, Pierce).
# One hundred microliters of the peptide solution (0.5 nmol of peptide) was added to each well and allowed to react overnight at +4° C.
# The unreacted maleimide groups were blocked with 2-mercaptoethanol: 150 μl of 1 mM 2-mercaptoethanol in 10 mM sodium phosphate/0.15 M NaCl/2 mM EDTA, pH 7.2 was added to each well and allowed to react for 1 hour at RT.
# The serum obtained from person nr. […] Control wells contained no peptide but both 2-mercaptoethanol and BSA blockings were employed. All incubations were performed in duplicates.
# [2] = system: serum antibodies of test subjects (anti-human IgG detection); settings: N-terminal biotin conjugate on streptavidin plate
# Experimental: Biotinylated peptides were bound to streptavidin-coated plates (Pierce).
# The peptides sequences were as follows: • Biotin-aminohexanoyl-PWVRGV (custom product, CSS, Edinburgh, Scotland) • Biotin-aminohexanoyl-SYACKR (custom product, CSS, Edinburgh, Scotland) • Biotin-aminohexanoyl-SKAYSNC (custom product, CSS, Edinburgh, Scotland)
# Prior to peptide immobilization, plates were blocked with 150 μl of 0.5% BSA in 10 mM sodium phosphate/0.15 M NaCl/0.05% Tween-20, pH 7.2, for 1.5 h at RT. The plate was then washed three times with 10 mM sodium phosphate/0.15 M NaCl/0.05% Tween-20, pH 7.2.
# Peptides were dissolved in 10 mM sodium phosphate/0.15 M NaCl, pH 7.2, to a concentration of 0.5 nmol/ml. One hundred microliters of the peptide solutions (50 pmol of the peptide) were added to the wells and allowed to react overnight at +4° C. The plates were then washed four times with 10 mM sodium phosphate/0.15 M NaCl/0.05% Tween-20/0.2% BSA, pH 7.2 (washing buffer).
# Serum was obtained from six healthy individuals (29-44 years of age), and dilutions 1:10, 1:100 and 1:1000 were prepared from all but one serum sample in the washing buffer. The serum obtained from person nr. 5 was instead diluted 1:25, 1:250 and 1:2500 in the washing buffer. One hundred microliters of each serum sample was added to the wells and incubated for 60 mins at RT. […] All incubations were performed in duplicates.
# After serum incubation the plate was washed with the washing buffer 8 times with at least 5 min incubation period between change of the washing liquid.
# The bound serum antibodies were quantitated by adding anti-human IgG (rabbit)—HRP conjugate (Sigma) in 1:30000 dilution to each well. After one hour incubation at RT, the plate was washed five times with the washing buffer. One hundred microliters of TMB+ color reagent (Dako Cytomation) was then added. The absorbance was read at 650 nm after 15 mins. Immediately after this measurement 100 μl of 1 M sulphuric acid was added and the absorbance read at 450 nm.
# A/Shangdong/9/93 H3N2 = type: binding, human influenza virus A; design: key: “+” = binding; “−” = no binding; “(+)” = trace binding
# A/2/Japan/305/57 H2N2 = type: binding, human influenza virus A; design: key: “+” = binding; “−” = no binding; “(+)” = trace binding
# A/Taiwan/1/86 H1N1 = type: binding, human influenza virus A; design: key: “+” = binding; “−” = no binding; “(+)” = trace binding
# A/PR/8/34 H1N1 = type: binding, human influenza virus A; design: key: “+” = binding; “−” = no binding; “(+)” = trace binding
# A/Kiev/301/94 H3N2 = type: binding, human influenza virus A; design: key: “+” = binding; “−” = no binding; “(+)” = trace binding
# A/X31, A/Aichi/3/75 H3N2 = type: binding, human influenza virus A; design: key: “+” = binding; “−” = no binding; “(+)” = trace binding
# A/Beijing/262/95 H1N1 = type: binding, human influenza virus A; design: key: “+” = binding; “−” = no binding; “(+)” = trace binding
# A/New Caledonia/20/99 = type: binding, human influenza virus A; design: key: “+” = binding; “−” = no binding; “(+)” = trace binding
# [3] = system: human influenza virus A strains; type: binding
substance,measurement,setting,value
Biotin-aminohexanoyl-SKAYSNC [Peptide 1],Approximate immune reactions of sera against synthetic peptides,[1]; Serum 1,weakly or non-reactive
same,Approximate immune reactions of sera against synthetic peptides,[1]; Serum 2,reacted
same,Approximate immune reactions of sera against synthetic peptides,[1]; Serum 3,reacted
same,Approximate immune reactions of sera against synthetic peptides,[1]; Serum 4,reacted
same,Approximate immune reactions of sera against synthetic peptides,[1]; Serum 5,weakly or non-reactive
same,Approximate immune reactions of sera against synthetic peptides,[1]; Serum 6,strongest
same,Approximate immune reactions of sera against synthetic peptides,"[2]; Serum 1, listed as Biotin-aminohexanoic-SKAYSNC",weakly or non-reactive
same,Approximate immune reactions of sera against synthetic peptides,"[2]; Serum 3, listed as Biotin-aminohexanoic-SKAYSNC",strongest immune response
same,Approximate immune reactions of sera against synthetic peptides,"[2]; Serum 4, listed as Biotin-aminohexanoic-SKAYSNC",strongest immune response
same,Approximate immune reactions of sera against synthetic peptides,"[2]; Serum 5, listed as Biotin-aminohexanoic-SKAYSNC",weakly or non-reactive
same,Approximate immune reactions of sera against synthetic peptides,"[2]; Serum 6, listed as Biotin-aminohexanoic-SKAYSNC",weakly or non-reactive
Biotin-aminohexanoyl-SYACKR [Peptide 2],Approximate immune reactions of sera against synthetic peptides,[1]; Serum 5,weaker
same,Approximate immune reactions of sera against synthetic peptides,[1]; Serum 6,strongest response
same,Approximate immune reactions of sera against synthetic peptides,"[2]; Serum 1, listed as Biotin-aminohexanoic-SYACKR",weakest reaction
same,Approximate immune reactions of sera against synthetic peptides,"[2]; Serum 2, listed as Biotin-aminohexanoic-SYACKR",strongest immune response
same,Approximate immune reactions of sera against synthetic peptides,"[2]; Serum 5, listed as Biotin-aminohexanoic-SYACKR",strongest immune response
Globoside,Binding of influenza virus strain to glycolipids,A/Shangdong/9/93 H3N2,−
same,Binding of influenza virus strain to glycolipids,A/2/Japan/305/57 H2N2,−
same,Binding of influenza virus strain to glycolipids,A/Taiwan/1/86 H1N1,−
same,Binding of influenza virus strain to glycolipids,A/PR/8/34 H1N1,−
same,Binding of influenza virus strain to glycolipids,A/Kiev/301/94 H3N2,−
same,Binding of influenza virus strain to glycolipids,"A/X31, A/Aichi/3/75 H3N2",−
same,Binding of influenza virus strain to glycolipids,A/Beijing/262/95 H1N1,−
same,Binding of influenza virus strain to glycolipids,A/New Caledonia/20/99,−
Neu5Acα2-3Galβ1-4GlcNAcβ1-3(Neu5Acα2-3Galβ1-4GlcNAcβ1-6)Galβ1-4Glc [Oligosaccharide 9],"activity on solid phase, in words",[3],active especially when presented in polyvalent form on a solid phase
